From patent US20180087027A1, “METHOD FOR […] OF HUMAN MESENCHYMAL STEM CELLS” (SEOUL NATIONAL UNIVERSITY HOSPITAL, priority 2015, published 2018) come the findings set out here.

What all share (assay type): cell-based
Data set [1] concerns Oct4 protein in human MSCs. Put plainly: Western blotting of Oct4 protein expression in human MSCs treated with ET-1. As for the experimental part:
To determine a level of expression of an Oct4 protein in human MSCs when the human MSCs were treated with ET-1, human MSCs purchased from Lonza were treated with an increasing concentration (0, 0.0125, 0.025, 0.125, and 0.25 μg/mL) of ET-1, and a level of protein expression was determined through western blotting.
Background: A western blot detects proteins with antibodies after separation by electrophoresis.

Another data set has as its system Oct4 mRNA in human MSCs. Put plainly: Real time PCR of Oct4 mRNA expression in human MSCs treated with ET-1. To be noted: RNA extracted 24 hours after ET-1 treatment, FIG. 2. As for the experimental part:
To compare levels of mRNA expression of Oct4 in human MSCs treated with ET-1, the human MSCs were treated with ET-1, and RNA was extracted therefrom after 24 hours to synthesize complementary cDNA. Thereafter, real time PCR was performed using the complementary cDNA as a template and Oct4 amplification primers set forth in the following SEQ ID NOs: 1 and 2.
SEQ ID NO: 1: 5′-gaggcaacct ggagaatttg-3′ (Oct4 forward primer)
SEQ ID NO: 2: 5′-tagcctgggg taccaaaatg-3′ (Oct4 reverse primer)
In general terms: Real-time PCR tracks product formation cycle by cycle.

Data set [2] concerns human MSCs. Briefly: G-banding karyotype analysis of chromosomal stability in human MSCs treated with ET-1. The following applies: human MSCs treated with ET-1 as in Example 2, FIG. 4. The procedure:
For this purpose, the G-banding karyotype analysis method known as a basic test method for evaluating genomic stability was performed. The G-banding karyotype analysis method is a method of pre-treating stem cells with trypsin, which is a proteolytic enzyme, and staining chromosomes with a Giemsa stain. In this case, euchromatin is stained with a light color, and heterochromatin is stained with a dark color. The G-banding karyotype analysis method is the test method most often used for chromosomal analysis because many staining bands are generated.

The subject of data set [3] is human MSCs. Put plainly: Real time gDNA PCR comparing length of telomeres in human MSCs treated with ET-1. The following applies: 0.025 μg/mL ET-1, medium replaced after 24 hours, gDNA collected after 3 days; FIG. 3. As for the experimental part: To check a change in a length of telomeres in human MSCs when the human MSCs were treated or were not treated with ET-1, the human MSCs were prepared so that the cells reached a confluency of 60% on a 60 mm plate. Before the human MSCs were treated with ET-1, a culture broth was replaced with a fresh culture broth. Thereafter, the human MSCs were treated with 0.025 μg/mL of ET-1, and the medium was replaced with a fresh culture broth after 24 hours. After 3 days, gDNA samples were collected. Then, real time gDNA PCR was performed using the samples to compare the lengths of the telomeres by means of ET-1 treatment.

Turning to endothelin-1 [ET-1], in data set [1] (ET-1 at a concentration of 0.025 μg/mL, FIG. 1), the “level of protein expression of Oct4 across the tested ET-1 concentrations” value was “highest level of protein expression”. For the same substance, the “level of protein expression of the stemness marker Oct4” value in data set [1] (human MSCs (Lonza) treated with 0, 0.0125, 0.025, 0.125 and 0.25 μg/mL ET-1, FIG. 1) is given as “significantly increased”. The “mRNA expression of Oct4” value in the data set on Oct4 mRNA in human MSCs is listed as “increased”. In the data set with human MSCs [2], the “chromosomal stability (chromosomal dysfunction)” value is given as “chromosomal dysfunction was not induced”. Besides, in the data set on human MSCs [3], the “lengths of the telomeres versus MSCs not treated with ET-1” value is on record as “extended approximately three-fold or more”.
